Patent US6489308B1, “Inhibitors of serine protease activity, methods and compositions for treatment of nitric-oxide-induced clinical conditions” (Trustees of University of Technology Corporation, priority 1999, dated 2002)
“Also recorded” adds a separate entry of the source.

Experiments:
Type in all cases: cell-based
[1] = tested on: NF-κB; assay: Electrophoretic mobility shift assay of NF-κB induced by interleukin-18; conditions: incubation with IL-18, FIG. 3
[2] = tested on: RAW 264.5 macrophages; assay: NO release (nitrite, Greiss reagent) upon induction with LPS and γ-IFN in macrophagic cells; conditions: FIG. 1 / FIG. 4
[3] = tested on: herpes simplex virus (HSV); assay: Herpes simplex virus replication; conditions: FIG. 7
[4] = tested on: cytomegalovirus (CMV); assay: Cytomegalovirus replication in infected RAW 264.5 macrophages; conditions: RAW 264.5 macrophages infected with CMV; FIG. 6
[5] = tested on: p-ERK; assay: Western blot of p-ERK (p42/p44 MAP kinase); conditions: FIG. 5
[6] = tested on: iNOS protein; assay: Western blot of iNOS protein induction by LPS and γ-interferon in macrophagic cells; conditions: γ-IFN and LPS, FIG. 2

Compound | induction of active NF-κB [1] | NO levels induced by γ-IFN and LPS (measured as NO2-) [2] | replication of HSV [3] | CMV replication [4] | level and/or phosphorylation of p-ERK [5] | induction of iNOS protein [6]
Cc1cccc(Cc2nnc(C(=O)C(NC(=O)[C@@H]3CCCN3C(=O)[C@@H](NC(=O)OCc3ccccc3)C(C)C)C(C)C)o2)c1 (stereo partly drawn) [CE-2072, benzyloxycarbonyl-L-valyl-N-[1-(2-[5-(3-methylbenzyl)-1,3,4-oxadiazolyl]carbonyl)-2-(S)-methylpropyl]-L-prolinamide, reference compound] | inhibit the induction of active NF-κB | inhibits NO levels | – | – | – | –
α1-antitrypsin: glycoprotein of MW 51,000 with 417 amino acids and 3 oligosaccharide side chains; naturally occurring serine protease inhibitor | inhibit the induction of active NF-κB | efficiently block γ-IFN- and LPS-induced NO synthesis; also recorded: inhibits NO levels | inhibits replication of HSV | blocks CMV replication | inhibits the level and/or phosphorylation of p-ERK | inhibits induction of iNOS protein
